We go through three substances from patent US20130005650A1 (priority 2011, published 2013).

The test system of one series is microorganisms. As to conditions: generally; cited from earlier work.
The conditions of series [1]: cited from earlier work.
Series [2] addresses yeast prion protein Sup-NM (Saccharomyces cerevisiae, UniProt P05453). Type of series: biochemical. The settings on record: thioflavin T fluorescence, 25° C.
The conditions of series [3]: human; cited from earlier work.
For a further series, the target named is T1, amyloid fibrils (Homo sapiens, UniProt P05067).
T1 construct: effective to reduce or reverse amyloid fibril formation (Aβ42 fibrillogenesis) in vitro
As to the kind of experiment: Incubation of acriflavine with amyloid fibrils (fibril dissociation). As to conditions: in vitro. Type of series: biochemical.

Series [4] deals with PSI^+ induction in yeast cells. As to the kind of experiment: PSI^+ induction assay in yeast. Type of series: cell-based. The settings on record: FIG. 2; 24 h, 50 μM copper sulfate, 30° C.
Series [5] deals with T2, Aβ42 fibrillogenesis (amyloid peptide) (Homo sapiens, UniProt P05067).
T2 construct: purchased Invitrogen (Camarillo, Calif.)
As to the kind of experiment: Congo Red spectrophotometric assay of amyloid fibrillogenesis. Type of series: biochemical. The text has this: In addition, the inhibition of the oligomerization of amyloid peptide (inhibition of amyloid fibrillogenesis) can be estimated by the method described by Klunk, et al. using Congo Red (Klunk, W. E., Jacob, R. F., Mason, R. P. (1999) “Quantifying amyloid β-peptide aggregation using the congo red-Aβ spectrophotometric assay” Anal. Biochem. 266:66-76).
The inhibition of the oligomerization of amyloid peptide was estimated by the method described by Klunk, et al. using Congo Red (Klunk, W. E., Jacob, R. F., Mason, R. P. (1999) “Quantifying amyloid β-peptide aggregation using the congo red-Aβ spectrophotometric assay” Anal. Biochem. 266, 66-76). Briefly, amyloid peptides were prepared in 40 μM in Tris-Acetate (40 mM:8 mM) buffer. Acriflavine HCl to be tested for inhibition of fibrillogenesis was dissolved in phosphate buffered saline, and then diluted 100 fold into Tris-Acetate buffer. Aliquots of 100 μl of amyloid peptide were incubated with acriflavine at room temperature for 5 days before measuring the absorbance. BSA was included in the buffer as a negative control. […] The absorbance of Congo Red at 541 nm was read using a Perkin-Elmer Victor3 1420 Multilabel Counter. The inhibition of oligomerization was calculated using the following formula: Inhibition=(Abs541 of sample-Abs541 of control)/(Abs541 of Amyloid peptide-Abs541 of BSA).

T2 sequence (P05067 672-713 limits assumed): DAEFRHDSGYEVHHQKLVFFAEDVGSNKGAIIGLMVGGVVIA
T1 sequence (P05067 672-713 limits assumed): as above
Sequence of yeast prion protein Sup-NM (P05453 1-254 limits assumed): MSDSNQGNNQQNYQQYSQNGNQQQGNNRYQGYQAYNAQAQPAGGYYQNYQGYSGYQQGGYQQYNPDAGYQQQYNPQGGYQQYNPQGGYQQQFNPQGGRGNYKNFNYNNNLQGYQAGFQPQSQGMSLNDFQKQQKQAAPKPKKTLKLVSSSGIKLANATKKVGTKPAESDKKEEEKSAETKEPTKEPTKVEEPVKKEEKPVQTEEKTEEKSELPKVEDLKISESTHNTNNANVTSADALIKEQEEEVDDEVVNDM

On to Acriflavine neutral, for which the “concentration inhibiting the growth of microorganisms” value in the series with microorganisms is 10^−4 to 10^−5 M. For the same substance, the toxicity result in series [1] (clinically used dosage range) is “low toxicity”. Further, the “effect on hematopoietic system and liver” value in series [1] (repetitive administrations for a prolonged period) is listed as “does not suppress the hematopoietic system, nor damage the liver”.

For acriflavine, the “inhibition of amyloid formation of yeast prion protein Sup-NM” value in series [2] was “inhibit in a dose-dependent manner”. In addition, the “crossing of the blood-brain barrier” value in series [3] is “able to cross the blood-brain barrier”. In addition, on amyloid fibrils, the “amount of amyloid peptide monomer after incubation with amyloid fibrils” value is on record as “increase in the amount of amyloid peptide monomer”. Moreover, the “inhibition of PSI^+ induction in yeast cells” value in series [4] is reported as “concentration dependent inhibition”.

Turning to Acriflavine HCl, in series [5] (FIG. 1, Aβ42), the “inhibition of amyloid fibrillogenesis” value is recorded as “concentration-dependent inhibition”. Also, the “IC50 for inhibition of fibrillogenesis” value in series [5] (amyloid peptide 40 μM, room temperature, 5 days, Congo Red Abs 541 nm) is “approximately 1.7 μg/mL”.
